Data: patent publication US20230312587A1, “PTERIDINONE COMPOUNDS AND USES THEREOF” (Vertex Pharmaceutical Incorporated, priority 2018, published 2023)
Like-named read-outs stand apart in the source and are kept apart here.

Legend:
[1] = tested on: β-catenin-TCF-mediated reporter transcription activity in Colo 205 cells; assay: Colo 205 reporter assay (TCF/LEF luciferase); assay type: cell-based; conditions: Homo sapiens, COLO 205, 5 h, five hours after addition of compound
In short: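 Luciferase signal from a TCF/LEF-driven reporter, stably integrated in Colo 205 colon cancer cells, was measured 5 h after compound addition.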

Hek293 empty vector = assay: In vitro cell viability (CellTiter-Glo), Hek293 empty vector; assay type: cell-based; conditions: Homo sapiens, HEK293; read-out: Hek293 empty vector viability
Protocol: HEK293 (ATCC, catalog #CRL-1573) cells are plated in 10 cm dishes (Corning, product #430167) into 10 mL of complete DMEM cell culture media [DMEM (Life Technologies, product #11960-051) media supplemented with 10% FBS (Hyclone, catalog #SH30071.03), antimycotic/antibiotic (Life Technologies, product #15240-062), and Glutamax (Life Technologies, product #35050-061)] at 3×10^6 cells per dish. Cells are allowed to attach and grow overnight at 37° C. in humidified 5% CO2. Cells are co-transfected with pVSV-G, pCMV-Gag/Pol and pCLPCX_WFS1 using Fugene 6 (Promega, catalog #E2691) according to manufacturer's protocol. Separately, cells are co-transfected with pVSV-G, pCMV-Gag/Pol and pCLPCX to produce control retrovirus. Cell culture media containing retrovirus (viral supernatant) is collected at 48 and 72 hours following transfection, filtered through a 0.4 uM filter, and stored at −80° C.
HEK293 cells are plated in 6 well plates (Corning, product #3516) in 2 mL of complete DMEM cell culture media at 1×10^5 cells well and allowed to attach and grow overnight at 37° C. in humidified 5% CO2. The following day, the media is replaced with viral supernatant to which 10 ug/ml of Polybrene® (Santa Cruz Biotech, catalog #sc-134220) is added. Viral supernatant is replaced 24 hours later with complete DMEM media. Transduced cells are selected in complete DMEM cell culture media containing 1 microgram/mL of puromycin (Life Technologies, catalog #A1113803).
HEK293 cells containing empty pCLPCx vector (HEK293 empty), HEK293 cells stably over-expression WFS1 (HEK293 WFS1), HepG2, and HepG2 cells where WFS1 was depleted via CRISPR/Cas9 (HepG2 WFS1 KO) cells were plated into 96-well black plates (Corning, product #3904) in 100 microliters of complete DMEM cell culture media [DMEM (Life Technologies, product #11960-051) media supplemented with 10% FBS (Hyclone, catalog #SH30071.03), antimycotic/antibiotic (Life Technologies, product #15240-062), and Glutamax (Life Technologies, product #35050-061)] at 1,000 (HEK293) or 5,000 (HepG2) cells per well. Cells were allowed to attach and grow overnight, after which compounds are added at various concentrations. Cell viability was assessed 96 hrs after compound addition with CellTiter-Glo reagent (Promega, catalog #G7570) according to manufacturer's protocol and measurement on a Pherastar luminescence plate reader (BMG Labtech).
The IC50s for the viability of both the Hek293 empty vector and WFS1 over-expressing cells are summarized in Table 47: A<0.06 μM; 0.06 μM≤B<0.6 μM; 0.6 μM≤C<3.0 μM; D≥3.0 μM.

[2] = Colo 205 TCF/LEF luciferase reporter, read-out: TCF reporter Colo205 IC50
[3] = Colo 205 cells with stably transfected TCF/LEF luciferase reporter, read-out: TCF reporter Colo205

Row | IC50 [1, 2] [nM] | IC50 [1, 3] [nM] | Compound | IC50 (Hek293 empty vector) [nM]
1 |  | < 300 | Cc1nc(NCc2cnn(Cc3ccc(C(F)(F)F)nc3)c2)nc2c1NC(=O)C1(CCC1)N2C [Compound 398, 4′,8′-dimethyl-2′-(((1-((6-(trifluoromethyl)pyridin-3-yl)methyl)-1H-pyrazol-4-yl)methyl)amino)-5′,8′-dihydro-6′H-spiro[cyclobutane-1,7′-pteridin]-6′-one] | ≥ 3000
2 | < 300 |  | Cc1nc(NCc2cnn(Cc3ccc(C(F)(F)F)nc3)c2)nc2c1NC(=O)[C@H](C1CC1)N2C [Compound 386, (7S)-7-Cyclopropyl-4,8-dimethyl-2-(((1-((6-(trifluoromethyl)pyridin-3-yl)methyl)-1H-pyrazol-4-yl)methyl)amino)-7,8-dihydropteridin-6(5H)-one] | ≥ 3000
3 | < 300 |  | CC[C@H]1C(=O)Nc2c(C)nc(NCc3cnn(Cc4ccc(C(F)(F)F)nc4)c3)nc2N1C [Compound 186, (7S)-7-ethyl-4,8-dimethyl-2-(((1-((6-(trifluoromethyl)pyridin-3-yl)methyl)-1H-pyrazol-4-yl)methyl)amino)-7,8-dihydropteridin-6(5H)-one] | ≥ 3000
4 | < 300 |  | Cc1nc(NCc2cnn(Cc3ccc(F)nc3)c2)nc2c1NC(=O)[C@H](C(C)C)N2C [Compound 384, (7S)-2-(((1-((6-fluoropyridin-3-yl)methyl)-1H-pyrazol-4-yl)methyl)amino)-7-isopropyl-4,8-dimethyl-7,8-dihydropteridin-6(5H)-one] | ≥ 3000
5 |  | ≥ 5000 | Cc1nc(N(C)Cc2cnn(Cc3ccc(C(F)(F)F)nc3)c2)nc2c1NC(=O)[C@H](C)N2C [Compound 403, (7S)-4,7,8-trimethyl-2-(methyl((1-((6-(trifluoromethyl)pyridin-3-yl)methyl)-1H-pyrazol-4-yl)methyl)amino)-7,8-dihydropteridin-6(5H)-one] | ≥ 3000
6 | < 300 |  | Cc1nc(NCc2cnn([C@@H](C)c3ccc(C(F)(F)F)nc3)c2)nc2c1NC(=O)[C@H](C)N2C [Compound 174, (7S)-4,7,8-Trimethyl-2-(((1-((S)-1-(6-(trifluoromethyl)pyridin-3-yl)ethyl)-1H-pyrazol-4-yl)methyl)amino)-7,8-dihydropteridin-6(5H)-one] | ≥ 3000
7 | ≥ 5000 |  | Cc1nc(NCc2cn(Cc3ccc(C(F)(F)F)nc3)cn2)nc2c1NC(=O)[C@H](C)N2C [Compound 428, (S)-4,7,8-trimethyl-2-(((1-((6-(trifluoromethyl)pyridin-3-yl)methyl)-1H-imidazol-4-yl)methyl)amino)-7,8-dihydropteridin-6(5H)-one] | ≥ 3000
8 | 1000 to 5000 |  | Cc1ccc(Cn2cc(CNc3nc(C)c4c(n3)N(C)[C@@H](C)C(=O)N4)cn2)cn1 [Compound 173, (7S)-4,7,8-trimethyl-2-(((1-((6-methylpyridin-3-yl)methyl)-1H-pyrazol-4-yl)methyl)amino)-7,8-dihydropteridin-6(5H)-one] | ≥ 3000

Continued, compound first:

Row | Compound | IC50 [1, 2] [nM] | IC50 [1, 3] [nM] | IC50 (Hek293 empty vector) [nM]
9 | COc1c(F)cc(Cn2cc(CNc3nc(C)c4c(n3)N(C)[C@@H](C)C(=O)N4)cn2)cc1F [Compound 46, (7S)-2-(((1-(3,5-difluoro-4-methoxybenzyl)-1H-pyrazol-4-yl)methyl)amino)-4,7,8-trimethyl-7,8-dihydropteridin-6(5H)-one] | < 300 |  | ≥ 3000
10 | Cc1nc(N[C@H]2C[C@@H](COc3cc(F)c(F)c(F)c3)C2)nc2c1NC(=O)[C@H](C)N2C [Compound 257, (7S)-4,7,8-Trimethyl-2-((cis-3-((3,4,5-trifluorophenoxy)methyl)cyclobutyl)-amino)-7,8-dihydropteridin-6(5H)-one] | < 300 |  | ≥ 3000
11 | Cc1nc(NCc2cnn(CCc3ccc(F)cc3)c2)nc2c1NC(=O)[C@H](C)N2C [Compound 6, (7S)-2-(((1-(4-fluorophenethyl)-1H-pyrazol-4-yl)methyl)amino)-4,7,8-trimethyl-7,8-dihydropteridin-6(5H)-one] | 300 to 1000 |  | ≥ 3000
12 | Cc1nc(NCc2cnn(Cc3cnc(Cl)c(F)c3)c2)nc2c1NC(=O)[C@H](C(C)C)N2C [Compound 424, (7S)-2-(((1-((6-chloro-5-fluoropyridin-3-yl)methyl)-1H-pyrazol-4-yl)methyl)amino)-7-isopropyl-4,8-dimethyl-7,8-dihydropteridin-6(5H)-one] | < 300 |  | ≥ 3000
13 | Cc1nc(N[C@H]2C[C@H](Oc3ccc(F)cc3)C2)nc2c1N(C)C(=O)[C@H](C)N2C [Compound 250, (7S)-2-((trans-3-(4-fluorophenoxy)cyclobutyl)amino)-4,5,7,8-tetramethyl-7,8-dihydropteridin-6(5H)-one] | 300 to 1000 |  | ≥ 3000
14 | Cc1nc(NCc2cnn(Cc3ccc(C(F)(F)F)nc3[C@@H](C)O)c2)nc2c1NC(=O)[C@H](C)N2C (single isomer, unassigned) [Compound 420] | < 300 |  | ≥ 3000
15 | CC(=O)N(Cc1cnn(Cc2ccc(C(F)(F)F)nc2)c1)c1nc(C)c2c(n1)N(C)[C@@H](C)C(=O)N2 [Compound 405, (7S)-N-((1-((6-(trifluoromethyl)pyridin-3-yl)methyl)-1H-pyrazol-4-yl)methyl)-N-(4,7,8-trimethyl-6-oxo-5,6,7,8-tetrahydropteridin-2-yl)acetamide] |  | ≥ 5000 | ≥ 3000
16 | Cc1nc(N[C@H]2C[C@@H](Sc3cc(F)c(F)c(F)c3)C2)nc2c1NC(=O)[C@H](C)N2C [Compound 332, (7S)-4,7,8-trimethyl-2-((cis-3-((3,4,5-trifluorophenyl)thio)cyclobutyl)amino)-7,8-dihydropteridin-6(5H)-one] | < 300 |  | ≥ 3000
17 | COc1cc(F)ccc1Cn1cc(CNc2nc(C)c3c(n2)N(C)[C@@H](C)C(=O)N3)cn1 [Compound 83, (7S)-2-(((1-(4-fluoro-2-methoxybenzyl)-1H-pyrazol-4-yl)methyl)amino)-4,7,8-trimethyl-7,8-dihydropteridin-6(5H)-one] | < 300 |  | ≥ 3000
18 | Cc1nc(N[C@H]2C[C@H](Oc3ccc(F)nc3)C2)nc2c1NC(=O)[C@H](C)N2C [Compound 357, (7S)-2-((trans-3-((6-fluoropyridin-3-yl)oxy)cyclobutyl)amino)-4,7,8-trimethyl-7,8-dihydropteridin-6(5H)-one] | 1000 to 5000 |  | ≥ 3000
19 | Cc1nc(NCc2cnn(Cc3ccc(F)cc3)c2)nc2c1NC(=O)C1(CC1)N2 [Compound 222, 2′-(((1-(4-fluorobenzyl)-1H-pyrazol-4-yl)methyl)amino)-4′-methyl-5′,8′-dihydro-6′H-spiro[cyclopropane-1,7′-pteridin]-6′-one] | ≥ 5000 |  | ≥ 3000
20 | Cc1ncc(Cn2cc(CNc3nc(C)c4c(n3)N(C)[C@@H](C(C)C)C(=O)N4)cn2)cc1F [Compound 425, (7S)-2-(((1-((5-fluoro-6-methylpyridin-3-yl)methyl)-1H-pyrazol-4-yl)methyl)amino)-7-isopropyl-4,8-dimethyl-7,8-dihydropteridin-6(5H)-one] | < 300 |  | ≥ 3000
21 | Cc1nc(N[C@@H]2CC[C@@H](Oc3cc(F)c(F)c(F)c3)C2)nc2c1N(C)C(=O)[C@H](C)N2C [Compound 272, (S)-4,5,7,8-tetramethyl-2-(((1R,3R)-3-(3,4,5-trifluorophenoxy)cyclopentyl)amino)-7,8-dihydropteridin-6(5H)-one] | < 300 |  | ≥ 3000
22 | Cc1nc(N[C@@H]2CC[C@@H](n3ccc(C(F)(F)F)n3)C2)nc2c1NC(=O)[C@H](C)N2C (single isomer, unassigned) [Compound 311] | < 300 |  | ≥ 3000
23 | Cc1nc(NCc2cnn(Cc3cc(C(F)(F)F)nn3C)c2)nc2c1NC(=O)[C@H](C1CC1)N2C [Compound 396, (7S)-7-Cyclopropyl-4,8-dimethyl-2-(((1-((1-methyl-3-(trifluoromethyl)-1H-pyrazol-5-yl)methyl)-1H-pyrazol-4-yl)methyl)amino)-7,8-dihydropteridin-6(5H)-one] | < 300 |  | ≥ 3000
